Test results as given in patent US9163012B2, “Carbamate and urea inhibitors of 11β-hydroxysteroid dehydrogenase 1” (Vitae Pharmaceuticals, Inc., priority 2009, dated 2015).
Values joined by “and” are separate entries in the source; they are usually repeats but may differ in a detail not shown here. Equal values may be shown once. Read-outs that look alike come from different tables or passages of the source.

Target: 11β-HSD1 (Homo sapiens (Human), UniProt P28845)
Experiment: Biological Test Example 1: inhibition of a microsomal preparation of 11β-HSD1 (SPA)
Type: biochemical
Conditions: for inhibition at 0.1 µM: read-out: Average % inhibition at 100 nM, Biological Test Example 1
Procedure: All reactions were carried out at rt in 96 well clear flexible PET Microbeta plates (PerkinElmer). […] After a 10 minute pre-incubation, 50 μL of enzyme solution containing microsomes isolated from CHO cells overexpressing human 11-HSD1 (10-20 μg/ml of total protein) was added, and the plates were incubated for 90 minutes at rt. The reaction was stopped by adding 50 μl of the SPA beads suspension containing 10 μM […], 5 mg/ml protein A coated YSi SPA beads (GE Healthcare) and 3.3 μg/ml of anti-cortisol antibody (East Coast Biologics) in Superblock buffer (Bio-Rad). The plates were shaken for 120 minutes at rt, and the SPA signal corresponding to [^3H]cortisol was measured on a Microbeta plate reader.

[1] = Biological Test Example 1, microsomes from CHO cells overexpressing human 11β-HSD1, read-out: IC50 Range
[2] = Biological Test Example 1, read-out: IC50
[3] = Biological Test Example 1, 100 nM compound

Chain of 11β-HSD1 (P28845 whole entry): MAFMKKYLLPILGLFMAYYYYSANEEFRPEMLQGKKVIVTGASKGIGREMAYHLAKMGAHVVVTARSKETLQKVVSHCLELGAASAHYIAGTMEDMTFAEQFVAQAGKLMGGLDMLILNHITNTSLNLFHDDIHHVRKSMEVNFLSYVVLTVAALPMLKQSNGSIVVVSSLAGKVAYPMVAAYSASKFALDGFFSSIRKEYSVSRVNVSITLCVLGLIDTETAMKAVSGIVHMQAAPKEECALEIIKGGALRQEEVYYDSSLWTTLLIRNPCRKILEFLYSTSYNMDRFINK

| Compound | IC50 [1] | IC50 [2] | inhibition at 0.1 µM (100 nM compound) | Average % inhibition at 100 nM [3] | further results |
| --- | --- | --- | --- | --- | --- |
| O=C(OC1C2CC3CC(C2)CC1C3)N1CCC(c2nc(-c3ccncc3)cs2)C1 (centres unmarked) [EXAMPLE 51, 2-adamantyl 3-(4-(pyridin-4-yl)thiazol-2-yl)pyrrolidine-1-carboxylate] | < 100 nM | 0.7 nM | 96.8% | – | – |
| Cn1c(=O)ccc2cc(C3CCN(C(=O)OC4C5CC6CC(C5)CC4C6)C3)ccc21 (centres unmarked) [EXAMPLE 17, 2-adamantyl 3-(1-methyl-2-oxo-1,2-dihydroquinolin-6-yl)pyrrolidine-1-carboxylate] | < 100 nM | 1.96 nM | 94.2% | – | – |
| Cn1c(C2CCCN2C(=O)OC2C3CC4CC2CC(C(N)=O)(C4)C3)nc2ccccc21 (centres unmarked) [EXAMPLE 32, (1-carbamoyl-4-adamantyl) 2-(1-methyl-1H-benzo[d]imidazol-2-yl)pyrrolidine-1-carboxylate] | < 100 nM | 1.08 nM | 94.7% | – | – |
| NC(=O)[C@]12CC3CC(C1)[C@@H](OC(=O)N1CC[C@H](n4c(=O)n(CCO)c5cc(F)ccc54)C1)C(C3)C2 [EXAMPLE 73, (S)-trans-1-carbamoyl-4-adamantyl 3-(5-fluoro-3-(2-hydroxyethyl)-2-oxo-2,3-dihydro-1H-benzo[d]imidazol-1-yl)pyrrolidine-1-carboxylate] | < 100 nM | 4.52 nM | 93% | – | – |
| Cn1ccc(-c2cnc(C3CCN(C(=O)OC4C5CC6CC4CC(C(N)=O)(C6)C5)C3)nc2)cc1=O (single isomer, unassigned; isomer 1) [EXAMPLE 57 Isomer 1, trans-1-carbamoyl-4-adamantyl 3-(5-(1-methyl-2-oxo-1,2-dihydropyridin-4-yl)pyrimidin-2-yl)pyrrolidine-1-carboxylate] | – | – | – | – | Average % inhibition at 100 nM: 65.0%; IC50 (read-out: IC50): 50.5 nM; IC50 (read-out: IC50 Range): < 100 nM |
| O=C(O[C@H]1C2CC3CC1C[C@](O)(C3)C2)N1CC[C@@H](Oc2ccc(C(F)(F)F)cn2)C1 [EXAMPLE 4, (R)-(trans-(1-hydroxy-4-adamantyl)) 3-(5-(trifluoromethyl)pyridin-2-yloxy)pyrrolidine-1-carboxylate] | < 100 nM | 2.63 nM | 90.3% | – | – |
| Cn1ccc(-c2csc([C@H]3CCCN3C(=O)OC3C4CC5CC(C4)CC3C5)n2)cc1=O (stereo partly drawn) [EXAMPLE 53, (R)-2-adamantyl 2-(4-(1-methyl-2-oxo-1,2-dihydropyridin-4-yl)thiazol-2-yl)pyrrolidine-1-carboxylate] | < 100 nM | 0.47 nM | 95.8% | – | – |
| Cn1ccc(-c2csc([C@H]3CCCN3C(=O)O[C@H]3C4CC5CC3C[C@](C(N)=O)(C5)C4)n2)cc1=O [EXAMPLE 55, (R)-trans-1-carbamoyl-4-adamantyl 2-(4-(1-methyl-2-oxo-1,2-dihydropyridin-4-yl)thiazol-2-yl)pyrrolidine-1-carboxylate] | < 100 nM | 2.07 nM | 93.1% | – | – |
| O=C(OC1C2CC3CC(C2)CC1C3)N1CCC(CO)(c2ccccc2)CC1 (centres unmarked) [EXAMPLE 30, 2-adamantyl 4-(hydroxymethyl)-4-phenylpiperidine-1-carboxylate] | < 100 nM | 13.2 nM and 4.44 nM | 87.4% | – | inhibition at 0.063 µM (Biological Test Example 1, Dose = 63 nM): 80.1% |
| O=C(OC1C2CC3CC(C2)CC1C3)N1CCC[C@@H]1c1nc(-c2cc[n+]([O-])cc2)cs1 (stereo partly drawn) [EXAMPLE 52, (R)-4-(2-(1-((2-adamantyloxy)carbonyl)pyrrolidin-2-yl)thiazol-4-yl)pyridine 1-oxide] | < 100 nM | 1.19 nM | 95.1% | – | – |
| O=C(OC1C2CC3CC1CC(O)(C3)C2)N1CCC(c2ccncc2)C1 (centres unmarked) [EXAMPLE 21, 1-hydroxy-4-adamantyl 3-(pyridin-4-yl)pyrrolidine-1-carboxylate] | < 100 nM | 20.8 nM | 81.4% | – | – |
| O=C(OC1C2CC3CC1CC(O)(C3)C2)N1CCC(c2cc[n+]([O-])cc2)C1 (centres unmarked) [EXAMPLE 22, 4-(1-((1-hydroxy-4-adamantyloxy)carbonyl)pyrrolidin-3-yl)pyridine 1-oxide] | > 100 nM | 100 nM | 3.7% | – | – |

Now from value to compound, other results behind:

| IC50 [1] | IC50 [2] | inhibition at 0.1 µM (100 nM compound) | Average % inhibition at 100 nM [3] | Compound | further results |
| --- | --- | --- | --- | --- | --- |
| > 100 nM | > 100 nM | – | 5.2% | Cc1cc(C2CCN(C(=O)OC3C4CC5CC3CC(C(N)=O)(C5)C4)C2)nn1C (single isomer, unassigned) [EXAMPLE 40 Isomer 2, 1-carbamoyl-4-adamantyl 3-(1,5-dimethyl-1H-pyrazol-3-yl)pyrrolidine-1-carboxylate] | – |
| < 100 nM | 1.15 nM | – | 102.6% | NC(=O)[C@]12CC3CC(C1)[C@@H](OC(=O)N1CCC(c4ncc(Cl)cn4)C1)C(C3)C2 (single isomer, unassigned) [EXAMPLE 26 Isomer 1a, (1-carbamoyl-4-adamantyl) 3-(5-chloropyrimidin-2-yl)pyrrolidine-1-carboxylate] | – |
| < 100 nM | 5.03 nM | 39.1% | – | Cc1nc2cc(C#N)ccc2n1[C@H]1CCN(C(=O)OC2C3CC4CC2CC(C(N)=O)(C4)C3)C1 (stereo partly drawn) [EXAMPLE 75, (S)-1-carbamoyl-4-adamantyl 3-(5-cyano-2-methyl-1H-benzo[d]imidazol-1-yl)pyrrolidine-1-carboxylate] | – |
| – | – | – | 91.8% | Cc1csc(C2CCN(C(=O)OC3C4CC5CC3CC(C(N)=O)(C5)C4)C2)n1 (single isomer, unassigned) [EXAMPLE 42 Isomer 1, transl-carbamoyl-4-adamantyl 3-(4-methylthiazol-2-yl)pyrrolidine-1-carboxylate] | – |
| < 100 nM | 5.72 nM | – | 86.5% | Cc1cc(C)nc(C2CCN(C(=O)OC3C4CC5CC3CC(C(N)=O)(C5)C4)C2)n1 (single isomer, unassigned) [EXAMPLE 43 Isomer 1, trans-1-carbamoyl-4-adamantyl 3-(4,6-dimethylpyrimidin-2-yl)pyrrolidine-1-carboxylate] | – |
| < 100 nM | 1.95 nM | 96.7% | – | Cn1ccc(-c2csc(C3CCN(C(=O)O[C@H]4C5CC6CC4C[C@](C(N)=O)(C6)C5)C3)n2)cc1=O (stereo partly drawn) [EXAMPLE 56, trans-1-carbamoyl-4-adamantyl 3-(4-(1-methyl-2-oxo-1,2-dihydropyridin-4-yl)thiazol-2-yl)pyrrolidine-1-carboxylate] | – |
| < 100 nM | 33.1 nM | 69% | – | N#Cc1ccc2[nH]c(=O)n([C@@H]3CCN(C(=O)O[C@H]4C5CC6CC4C[C@](C(N)=O)(C6)C5)C3)c2c1 [EXAMPLE 65, (R)-trans-1-carbamoyl-4-adamantyl 3-(6-cyano-2-oxo-2,3-dihydro-1H-benzo[d]imidazol-1-yl)pyrrolidine-1-carboxylate] | – |
| < 100 nM | 4.17 nM | 89.9% | – | NC(=O)[C@]12CC3CC(C1)[C@@H](OC(=O)N1CC[C@@H](n4c(=O)[nH]c5ccccc54)C1)C(C3)C2 [EXAMPLE 61, (R)-trans-1-carbamoyl-4-adamantyl 3-(2-oxo-2,3-dihydro-1H-benzo[d]imidazol-1-yl)pyrrolidine-1-carboxylate] | – |
| – | – | – | 13.3% | Cc1ccc(C2CCN(C(=O)OC3C4CC5CC3CC(C(N)=O)(C5)C4)C2)nn1 (single isomer, unassigned) [EXAMPLE 37 Isomer 2] | – |
| – | – | – | 69.0% | NC(=O)C12CC3CC(C1)C(OC(=O)N1CCC(c4ncc(F)cn4)C1)C(C3)C2 (single isomer, unassigned) [EXAMPLE 41 Isomer 2, 1-carbamoyl-4-adamantyl 3-(5-fluoropyrimidin-2-yl)pyrrolidine-1-carboxylate] | – |
| > 100 nM | > 100 nM | – | 6.1% | NC(=O)c1cnc(C2CCN(C(=O)OC3C4CC5CC3CC(C(N)=O)(C5)C4)C2)nc1 (single isomer, unassigned) [EXAMPLE 47 Isomer 1, 1-carbamoyl-4-adamantyl 3-(5-carbamoylpyrimidin-2-yl)pyrrolidine-1-carboxylate] | – |
| > 100 nM | > 100 nM | – | 1.8% | Cc1cnc(C2CCN(C(=O)OC3C4CC5CC3CC(C(N)=O)(C5)C4)C2)nc1 (single isomer, unassigned) [EXAMPLE 39 Isomer 2, 1-carbamoyl-4-adamantyl 3-(5-methylpyrimidin-2-yl)pyrrolidine-1-carboxylate] | – |
| > 100 nM | > 100 nM | – | 3.8% | O=C(OC1C2CC3CC1CC(C(=O)O)(C3)C2)N1CCC(c2ncc(Cl)cn2)C1 (single isomer, unassigned) [EXAMPLE 46 Isomer 2, cis-4-((3-(5-chloropyrimidin-2-yl)pyrrolidine-1-carbonyl)oxy)adamantane-1-carboxylic acid] | – |
| > 100 nM | > 100 nM | – | 1.5% | Cc1ncc(C2CCN(C(=O)OC3C4CC5CC3CC(C(N)=O)(C5)C4)C2)cn1 (single isomer, unassigned) [EXAMPLE 36 Isomer 2, 1-carbamoyl-4-adamantyl 3-(2-methylpyrimidin-5-yl)pyrrolidine-1-carboxylate] | – |
| – | – | – | 21.8% | Cc1csc(C2CCN(C(=O)OC3C4CC5CC3CC(C(N)=O)(C5)C4)C2)n1 (single isomer, unassigned) [EXAMPLE 42 Isomer 2, cis-1-carbamoyl-4-adamantyl 3-(4-methylthiazol-2-yl)pyrrolidine-1-carboxylate] | – |
